Experiments:
[1] = test system: bone marrow cells in culture; conditions: sub-optimal amounts of colony stimulating factors; cited from earlier work
Balb/C female mice [2] = assay: Hematopoietic recovery after cyclophosphamide in mice (spleen weight, blood cell counts); format: in vivo, mouse
Balb/C female mice [3] = assay: as above; format: in vivo, mouse; remark: listed apart in the source
Experimental: Twenty-four hours later and each day thereafter for a total of 6 days, mice were given a 0.4 ml i.p. injection of either physiological saline (controls), guanine (5 μmoles/mouse/day), or guanosine (5 μmoles/mouse/day). On day 7 all 10 mice in each of the three groups were bled, and then sacrificed by cervical dislocation. Spleens were removed and weighed, and complete blood cell counts performed.
Twenty-four hours later and each day thereafter for a total of 6 days, mice were given a 0.4 ml i.p injection of either physiological saline (controls), Tween 80 (0.2%), guanosine (5 μmoles/mouse/day in 0.2% Tween 80), or 2.5 μmoles per mouse per day of one of the following acylated derivatives of guanosine in 0.2% Tween 80: triacetylguanosine, octanoylguanosine, lauroylguanosine, or palmitoylguanosine. On day 7 following CP administration all 10 animals from each of the 7 groups were bled, and then sacrificed by cervical dislocation. Spleens were removed and weighed, and complete blood counts performed.
Twenty-four hours later treatment was begun. Mice were given a 0.4 ml i.p. injection of either physiological saline (controls), Tween 80 (0.2%), or palmitoylguanosine (5 μmoles/mouse/day in 0.2% Tween 80). The timing of the treatments was varied within the groups. The control group was given saline on days 1-6. The mice receiving Tween 80 were treated either on days 1-4, 4-6 or 1-6. Palmitoylguanosine-treated mice were treated either on days 1-2, 1-4, 3-5, 4-6 or 1-6. If a group of mice received no Tween 80 or palmitoylguanosine on a given day, saline was administered by i.p. injection. Thus, there were 9 groups of 9 animals in all. On day 7 following CP administration all of the animals were bled and then sacrificed by cervical dislocation. Spleens were removed and weighed, and complete blood cell counts performed.
Twenty-four hours later and each day thereafter for a total of 6 days, mice were given a 0.4 ml i.p. injection of either physiological saline (controls), Tween 80 (0.5%), or one of three different doses of octanoylguanosine (0.5, 2.5, or 5 μmoles/mouse/day in 0.5% Tween 80). On day 7 following CP administration all 9 animals from each of the […] were bled and then sacrificed by cervical dislocation. Spleens were removed and weighed, and complete blood cell counts performed.
Twenty-four hours later and each day thereafter for a total of 6 days, mice were given a 0.4 ml i.p. injection of either physiological saline (controls), Tween 80 (0.5%), or octanoylguanosine (5.0 μmoles/mouse/day in 0.5% Tween 80). On day 7 following CP administration all 10 animals from each of the 3 groups were bled and then sacrificed by cervical dislocation. Spleens were removed, weighed, and fixed in 10% formalin for later histological examination. Complete blood cell counts were performed on the collected blood.
Twenty-four hours later and each day thereafter for a total of 6 days, mice were given a 0.4 ml i.p. injection of either physiological saline (controls), benzoylguanosine (2.5 μmoles/mouse/day in 0.2% Tween 80), or palmitoylguanosine (2.5 μmoles/mouse/day in 0.2% Tween 80). On days 7 and 10 following CP administration 8 animals from each of the 3 groups were bled and then were sacrificed by cervical dislocation. Spleens were removed and weighed, and complete blood cell counts performed.
Twenty four hours later and each day thereafter for a total of 4 or 6 days, mice were given a 0.4 ml i.p. injection of either physiological saline (controls), palmitoyldeoxyinosine (2.5 μmoles/mouse), or palmitoyl-xanthosine (2.5 μmoles/mouse). On days 5 and 7 following CP administration 6 of the 12 animals in each of the 3 groups were bled and then sacrificed by cervical dislocation. Spleens were removed and weighed, and complete blood cell counts performed.

For “polyoxyethylene sorbitan mono-oleate [Tween 80]”, the “concentration of maximum activity” value [1] is given as 10 ng/mL, the spleen weight (Balb/C female mice [2]; Ex 46: day 7 after CP, Tween 80 0.5% alone vs saline) is given as “modest increase” and the neutrophil counts (Balb/C female mice [2]; Ex 58: day 7 after CP, 1.0% Tween alone i.p. 6 days, vs saline) is given as “significantly different from controls”. The spleen weight (Balb/C female mice [3]; Ex 38: day 7 after CP, guanosine 5, acyl derivatives 2.5 μmoles/mouse/day in 0.2% Tween 80 i.p. 6 days, Tween 80 0.2%) was “No significant difference”, the lymphocyte counts (Balb/C female mice [3]; Ex 41: day 7 after CP, Tween 80 0.2% for any period) was “not affected” and the spleen weight (Balb/C female mice [3]; Ex 41: day 7 after CP, Tween 80 0.2% on days 4-6 or 1-6 (not days 1-4), vs saline) was “elevated”. For the same substance, the mean spleen weight (Balb/C female mice [3]; Ex 45: day 7 after CP, Tween 80 0.5%) was “some increase”.

From patent publication US7307166B1, “Oxpurine nucleosides and their congeners, and acyl, derivatives thereof, for improvement of hematopoiesis” (Wellstat Therapeutics Corporation, priority 1987, dated 2007)
